Reference: patent US20200231562A1, “NOVEL MACROLIDE ANTIBIOTICS” (HELMHOLTZ-ZENTRUM FÜR INFEKTIONSFORSCHUNG GMBH, priority 2014, published 2020)
≈ marks a conversion by molar mass, not a printed value. Like-named read-outs stand apart in the source and are kept apart here.

Assays:
Assay type in all cases: cell-based
[1] = system: methicillin-resistant S. aureus (MRSA); assay: Bouillon dilution assay (MIC90); conditions: Staphylococcus aureus, tryptic soy broth, 37° C., 16 h
Procedure: (§1) Before incubation, 3 was added in decreasing concentrations ([…] to 12.5 μg/ml). After incubation, the OD600 was measured. The experiment was run in triplicate. Ciprofloxacin was used as a positive control.

S. auricularis A = assay: Bouillon dilution assay (MIC90); conditions: Staphylococcus auricularis, tryptic soy broth, 37° C., 16 h
Procedure: as §1

[2] = system: Bacillus subtilis ATCC 6633; assay: Agar diffusion assay; conditions: ATCC6633, 50 μL of 0.5 mg in 1 mL methanol per 7 mm hole, n.a. = no activity observed, read-out: diameter of inhibition zone
Procedure: (§2) Antimicrobial activities of the gulmirecins were determined in a primary screen against Bacillus subtilis ATCC 6633, Staphylococcus aureus SG511, Staphylococcus auricularis DSM 20609, Mycobacterium vaccae IMET 10670, Pseudomonas aeruginosa K799/61, Escherichia coli SG458, Sporobolomyces salmonicolor SBUG 549, Candida albicans ATCC14053 and Penicillium notatum JP 36. To this end, holes with 7 mm diameter were aseptically punched in the respective agar medium. Subsequently, the agar plates were inoculated with the test organisms. 0.5 mg of every test compound was dissolved in 1 mL of methanol, and 50 μL of this solution was transferred to a single hole. Ciprofloxacin and amphotericin B served as positive controls. After evaporation of the solvent, the agar plates were incubated depending on the growth conditions of the test organisms. […] The test results are shown in Table 6 below, wherein the given values represent the diameters of the respective inhibition zone in the agar diffusion assay.

[3] = system: Mycobacterium vaccae IMET 10670; assay: Agar diffusion assay; conditions: Mycolicibacterium vaccae, IMET10670; 50 μL of 0.5 mg in 1 mL methanol per 7 mm hole; n.a. = no activity observed; read-out: diameter of inhibition zone
Procedure: as §2

[4] = system: Pseudomonas aeruginosa DSM 50071; assay: MIC by microbroth dilution; conditions: 16 h, 30° C., n.i. = no inhibition up to 67 μg/ml
In short: (§3)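 Read-out: A600 after 16 h at 30° C. with shaking; MIC from sigmoidal fit. Cells from overnight EBS cultures set to OD600 0.01, compound (in DMSO) serially diluted, duplicates.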

[5] = system: Staphylococcus aureus (MRSA) DSM-11822; assay: MIC by microbroth dilution; conditions: microbroth dilution, 16 h, 30° C., n.i. = no inhibition up to 67 μg/ml
In short: as §3

[6] = system: Staphylococcus aureus DSM 346; assay: MIC by microbroth dilution; conditions: Staphylococcus aureus, DSM346, 16 h, 30° C., n.i. = no inhibition up to 67 μg/ml, read-out: MIC
In short: as §3

[7] = system: Staphylococcus aureus Newman; assay: MIC by microbroth dilution; conditions: 16 h, 30° C., n.i. = no inhibition up to 67 μg/ml
In short: as §3

[8] = system: Escherichia coli DSM 1116; assay: MIC by microbroth dilution; conditions: 16 h, 30° C., n.i. = no inhibition up to 67 μg/ml
In short: as §3

[9] = system: Micrococcus luteus DSM 20030; assay: MIC by microbroth dilution; conditions: Micrococcus luteus, DSM20030, 16 h, 30° C., n.i. = no inhibition up to 67 μg/ml, read-out: MIC
In short: as §3

Bacillus subtilis DSM 10 = assay: MIC by microbroth dilution; conditions: Bacillus subtilis, DSM10, 16 h, 30° C., n.i. = no inhibition up to 67 μg/ml, read-out: MIC
In short: as §3

[10] = system: Mycobacterium diemhoferi DSM 43524; assay: MIC by microbroth dilution; conditions: Mycobacterium, DSM43524, 16 h, 30° C., n.i. = no inhibition up to 67 μg/ml, read-out: MIC
In short: as §3

[11] = system: Paenibacillus polymyxa DSM 36; assay: MIC by microbroth dilution; conditions: Paenibacillus polymyxa, DSM36, 16 h, 30° C., n.i. = no inhibition up to 67 μg/ml, read-out: MIC
In short: as §3

[12] = system: Chromobacterium violaceum DSM 30191; assay: MIC by microbroth dilution; conditions: 16 h, 30° C., n.i. = no inhibition up to 67 μg/ml
In short: as §3

[13] = system: Staphylococcus aureus N315 (MRSA); assay: MIC by microbroth dilution; conditions: 16 h, 30° C., n.i. = no inhibition up to 67 μg/ml
In short: as §3

[14] = system: Staphylococcus aureus Mu50 (MRSA/VRSA) ATCC 700699; assay: MIC by microbroth dilution; conditions: 16 h, 30° C., n.i. = no inhibition up to 67 μg/ml
In short: as §3

[15] = system: Staphylococcus camosus DSM 20501; assay: MIC by microbroth dilution; conditions: 30° C., n.i. = no inhibition up to 67 μg/ml
In short: as §3

[16] = system: Chinese hamster ovary CHO-K1 cells (ACC-110); assay: Cytotoxicity (MTT) assay, antiproliferative activity; conditions: Cricetulus griseus, 120 h, CHO-K1, 5 d incubation
Procedure: Half maximal inhibitory concentrations (IC50) in μg/ml of disciformycin A (1) and disciformycin B (2) for inhibiting the proliferative activity of human HCT-116 colon carcinoma cells, mouse fibroblast cells L929, and Chinese hamster ovary CHO-K1 cells were determined. Cells were seeded at 6×10^3 cells per well of 96-well plates (Corning CellBind®) in complete medium (180 μl) and directly treated with disciformycin dissolved in DMSO in serial dilution. The compound was tested in duplicate, as well as the internal solvent control. After 5 d incubation, 5 mg/ml MTT in PBS (20 μL) was added per well and it was further incubated for 2 h at 37° C. The medium was then discarded and cells were washed with PBS (100 μl) before adding 2-propanol/10N HCl (250:1, v/v; 100 μl) in order to dissolve formazan granules. The absorbance at 570 nm was measured using a microplate reader (EL808, Bio-Tek Instruments Inc.). The amount of formazan, i.e. relative absorption, is thereby proportional to the number of actively proliferating cells.

[17] = Staphylococcus aureus, read-out: MIC

## C/C=C(/C)[C@H]1C/C=C(\C)[C@@H](O[C@H]2O[C@H](CO)[C@@H](O)[C@@H]2O)[C@H](OC(=O)CC(C)C)C(=O)C[C@@H](O)[C@H](C)C(=O)O1 [Compound 3, gulmirecin A]
[1]
  MIC90: 23.1 µM (≈ 12.5 µg/mL)
S. auricularis A
  MIC90: 22.5 µM (≈ 12.2 µg/mL)
[2]
  zone of inhibition at 25 µg/hole: 35 mm
[3]
  zone of inhibition at 25 µg/hole: 17 mm

## C/C=C(/C)[C@H]1C/C=C(\C)[C@@H](O[C@H]2O[C@H](CO)[C@@H](O)[C@@H]2O)[C@H](OC(=O)CC(C)C)C(=O)C/C=C(/C)C(=O)O1 [Compound 1, disciformycin A]
[4]
  MIC: n.i.
[5]; [17]
  MIC: 4 µg/mL (≈ 7.62 µM)
[5]
  MIC: 4.0 µg/mL (≈ 7.62 µM)
[6]
  MIC: 16.6 µg/mL (≈ 31.6 µM)
[7]
  MIC: 8.0 µg/mL (≈ 15.2 µM)
[7]; Staphylococcus aureus, NEWMAN, read-out: MIC
  MIC: 8 µg/mL (≈ 15.2 µM)
[8]
  MIC: n.i.
[9]
  MIC: 67 µg/mL (≈ 128 µM)
Bacillus subtilis DSM 10
  MIC: 4.2 µg/mL (≈ 8.01 µM)
[10]
  MIC: 33.3 µg/mL (≈ 63.5 µM)
[11]
  MIC: 16.6 µg/mL (≈ 31.6 µM)
[12]
  MIC: n.i.
[13]
  MIC: 8.0 µg/mL (≈ 15.2 µM)
[13]; Staphylococcus aureus, MRSA, read-out: MIC
  MIC: 8 µg/mL (≈ 15.2 µM)
[14]
  MIC: 2.0 µg/mL (≈ 3.81 µM)
[14]; [17]
  MIC: 2 µg/mL (≈ 3.81 µM)
[15]; 16 h
  MIC: 7.8 µg/mL (≈ 14.9 µM)
[15]; Staphylococcus, DSM20501, 16 h, read-out: MIC
  MIC: 7.8 µg/mL (≈ 14.9 µM)
[16]
  IC50: 16.6 µg/mL (≈ 31.6 µM)
